Measured values published in publication PMC5902495, “Synthesis of Symmetrical Tetrameric Conjugates of the Radiolanthanide Chelator DOTPI for Application in Endoradiotherapy by Means of Click Chemistry” (Frontiers in Chemistry, 2018).

How the values were obtained:
[1] = 25°C, I = 0.1 M Me4NCl, ref Šimeček et al., [2013], cited from earlier work
[2] = 25°C, I = 0.1 M Me4NCl; ref Lázár et al., [1991]; cited from earlier work
[3] = Stability and protonation constants of Zn^II complexes (pH-potentiometry); format: physicochemical; settings: 25°C, 0.15 M NaCl
Source text: (§1) For determining the protonation constants of DOTPI(Chx)4 and DOTPI three parallel pH-potentiometric titration were made with 0.2 M NaOH in 0.002 M ligand solutions. The stability and protonation constants of the Ca^II and Zn^II complexes formed with DOTPI(Chx)4 and DOTPI ligands have been determined by direct pH-potentiometric titration made at 1:1 and 2:1 metal to ligand concentration ratios. (the concentration of ligands was 0.002 M). For the calculation of the logKML and logKMLHi values, the mL base—pH data used were obtained in the pH range 1.7–12.0.
(§2) For pH measurements and titrations, a Metrohm 785 DMP Titrino titration workstation and a Metrohm-6.0233.100 combined electrode were used. Equilibrium measurements were carried out at a constant ionic strength (0.15 M NaCl) in 6 mL samples at 25°C. The solutions were stirred, and constantly purged with N2. The titrations were performed in a pH range of 1.7–11.7. KH-phthalate (pH = 4.005) and borax (pH = 9.177) buffers were used to calibrate the pH meter. For calculation of [H^+] from measured pH values, the method proposed by Irving et al. was used (Irving et al., [1967]). A 0.01 M HCl solution was titrated with the standardized NaOH solution in the presence of 0.1 M NaCl. Differences between the measured (pHread) and calculated pH (–log[H^+]) values were used to obtain the equilibrium H^+ concentration from the pH values, measured in the titration experiments. For the equilibrium calculations, the stoichiometric water ionic product (pKw) is also needed to calculate [H^+] values in basic conditions. The VNaOH – pHread data pairs of the HCl – NaOH titration obtained in the pH range 10.5–12 have been used to calculate the pKw value (pKw = 13.85). For the calculation of the equilibrium constants the program PSEQUAD (Zekany and Nagypal, [1985]) was used.
(§3) 2. Protonation and complexation equilibria of DOTPI and
(§4) The protonation processes of the DOTPI and DOTPI(Chx)4, ligands have been studied by pH-potentiometry. The protonation constants (logKiH) of ligands are defined according to Eq. (1).
(§5) The stability and protonation constants of DOTPI and DOTPI(Chx)4 complexes with several metal ions were determined by pH-potentiometric and UV/Vis spectrophotometric, methods.
(§6) The stability and protonation constants of the metal complexes formed with the DOTPI and DOTPI(Chx)4, ligands, defined by Eqs. […]
where i = 1, 2, 3…5. The KML and KMHiL values characterizing the formation of DOTPI and DOTPI(Chx)4 complexes of CaII and ZnII have been calculated from the pH-potentiometric titration data obtained at 1:1 metal to ligand concentration ratios. The protonation constants of the complexes Cu(DOTPI) and Cu(DOTPI( Chx)4) were also determined by pH-potentiometric titrations, made at 1:1 metal to ligand concentration ratio. The pH-potentiometric titrations of DOTPI ligand were also performed at 2:1 metal-to-ligand ratio in order to examine the possible formation of dinuclear CaII-, ZnII-, and CuII-DOTPI complexes.
The stability and protonation constants of the dinuclear complexes formed with the DOTPI […]
where i=1 and 2. In calculating the equilibrium constants, the best fit of the mL base – pH data was obtained by assuming the formation of ML, MHL, MH 2L, MH3L, MH4L, MH5L, M2L, M2LH, and M2LH2 complexes with DOTPI and DOTPI(Chx)4.
(also on this page, place not known: ]H][LH[ ]LH[K 1i iH + − = DOTPI( Chx)4 f ormed ]L][M[ ]ML[K ML = ]H][LMH[ ]LMH[K 1i i LMHi + − = i 3 …5. Ca II Zn II -potentiometric pH - metal -to-ligand Cu II-DOTPI ]M][ML[ ]LM[K 2 LM2 = ]H][LHM[ ]LHM[K 1i2 i2 LHM i2 + − = pH MH 4L,) […]

[4] = Stability and protonation constants of Ca^II complexes (pH-potentiometry); format: physicochemical; settings: 25°C, 0.15 M NaCl
Source text: as §1, §2, §3, §4, §5, §6
where i = 1, 2, 3…5. The KML and KMHiL values characterizing the formation of DOTPI and DOTPI(Chx)4 complexes of CaII and ZnII have been calculated from the pH-potentiometric titration data obtained at 1:1 metal to ligand concentration ratios. The protonation constants of the complexes Cu(DOTPI) and Cu(DOTPI( Chx)4) were also determined by pH-potentiometric titrations, made at 1:1 metal to ligand concentration ratio. […]

[5] = 25°C, I = 0.1 M Me4NCl; ref Lázár et al., [1991]; cited from earlier work; remark: listed apart in the source

SMILES: O=C(O)CCP(=O)(O)CN1CCN(CP(=O)(O)CCC(=O)O)CCN(CP(=O)(O)CCC(=O)O)CCN(CP(=O)(O)CCC(=O)O)CC1 [DOTPI, 1,4,7,10-tetraazacyclododecane-1,4,7,10-tetrakis[methylene(2-carboxyethylphosphinic acid)]]
- Σlog KiH (total basicity) ([1]; distant carboxylate groups of DOTPI not considered): 24.91
- log K1H [1]: 11.58
- log K2H [1]: 8.90
- log K3H [1]: 5.65
- log K4H [1]: 4.98
- log K5H [1]: 4.61
- log K6H [1]: 4.07
- log K7H [1]: 3.12
- log K8H [1]: 1.31
- logKML, CaL [2]: 12.48
- protonation constant Zn2LH [3]: 5.02 (5)
- protonation constant Zn2LH2 [3]: 4.87 (4)
- protonation constant ZnH2L [3]: 5.15 (3)
- protonation constant ZnH3L [3]: 4.40 (4)
- protonation constant ZnH4L [3]: 4.42 (1)
- protonation constant ZnHL [3]: 5.65 (3)
- stability constant of dinuclear complex Zn2L [3]: 3.78 (4)
- protonation constant CaH2L [4]: 5.04 (9)
- protonation constant CaHL [4]: 6.49 (4)
- stability constant of dinuclear complex Ca2L [4]: 2.85 (5)
- logKML, CuL [5]: 23.11
